Assay results as given in US8501770B2 (ArQule, Inc., priority 2009, dated 2013).

Biological target: Full-length inactive AKT1 (Homo sapiens, UniProt P31749)
Test: Inactive Akt Alpha Screen Assay
Assay type: biochemical
Details: AlphaScreen assay (values not marked with *); read-out: Akt1 IC50, (AlphaScreen) (μM) (or if marked with “*” HTRF assay)
Method in brief: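 AlphaScreen read-out (excitation 640 nm, emission 570 nm) after 90 min incubation at room temperature in the dark. Signal comes from crosstide phosphorylation by AKT1, which was activated by added PDK1, MAPKAPK2, ATP and lipid vesicles, captured via phospho-AKT substrate antibody and streptavidin beads.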

Full-length inactive AKT1, sequence (P31749 whole entry): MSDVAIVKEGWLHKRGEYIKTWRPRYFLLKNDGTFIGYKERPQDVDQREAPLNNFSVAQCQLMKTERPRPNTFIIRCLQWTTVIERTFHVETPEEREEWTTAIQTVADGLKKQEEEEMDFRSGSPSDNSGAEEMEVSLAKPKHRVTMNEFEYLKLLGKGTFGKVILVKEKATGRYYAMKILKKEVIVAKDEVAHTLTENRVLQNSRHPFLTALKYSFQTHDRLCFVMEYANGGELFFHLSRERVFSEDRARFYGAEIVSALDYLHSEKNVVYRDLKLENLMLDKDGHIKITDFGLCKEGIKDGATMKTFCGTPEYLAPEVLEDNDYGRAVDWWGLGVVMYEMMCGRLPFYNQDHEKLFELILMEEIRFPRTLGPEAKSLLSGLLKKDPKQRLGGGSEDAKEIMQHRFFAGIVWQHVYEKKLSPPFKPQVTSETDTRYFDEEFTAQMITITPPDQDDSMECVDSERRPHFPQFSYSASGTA

SMILES	IC50 [µM]
CNC(=O)c1cc(F)cc(-c2ccc3nc(-c4cccnc4N)n(-c4ccc(C5(N)CCC5)cc4)c3n2)c1 [Example 432, 3-{3-[4-(1-aminocyclobutyl)phenyl]-2-(2-aminopyridin-3-yl)-3H-imidazo[4,5-b]pyridin-5-yl}-5-fluoro-N-methylbenzamide]	0.0064
Cc1ccc(-c2ccc3nc(-c4cccnc4N)n(-c4ccc(C5(N)CCC5)cc4)c3n2)cc1O [Example 443, 5-{3-[4-(1-aminocyclobutyl)phenyl]-2-(2-aminopyridin-3-yl)-3H-imidazo[4,5-b]pyridin-5-yl}-2-methylphenol]	0.012

Same assay, conditions: values not marked with "*"; read-out: Akt1 IC50, (AlphaScreen)

SMILES	IC50 [µM]
Cc1cnc2c(c1)nc(-c1cccnc1N)n2-c1ccc(CNC(=O)c2ccccc2-n2cccc2)cc1 [Example 214, N-(4-(2-(2-aminopyridin-3-yl)-6-methyl-3H-imidazo[4,5-b]pyridin-3-yl)benzyl)-2-(1H-pyrrol-1-yl)benzamide]	0.023
Cc1ccc2cc(NC(=O)Cc3ccc(-n4c(-c5cccnc5N)nc5ccc(C)nc54)cc3)ccc2n1 [Example 302, 2-(4-(2-(2-aminopyridin-3-yl)-5-methyl-3H-imidazo[4,5-b]pyridin-3-yl)phenyl)-N-(2-methylquinolin-6-yl)acetamide]	0.078
Nc1ncccc1-c1nc2ccc(-c3ccc(O)cc3)nc2n1-c1ccc(C2(N)CCC2)cc1 [Example 424, 4-{3-[4-(1-aminocyclobutyl)phenyl]-2-(2-aminopyridin-3-yl)-3H-imidazo[4,5-b]pyridin-5-yl}phenol]	0.0093
Nc1ncccc1-c1nc2ccc(-c3ccccc3CO)nc2n1-c1ccc(C2(N)CCC2)cc1 [Example 382, (2-(3-(4-(1-aminocyclobutyl)phenyl)-2-(2-aminopyridin-3-yl)-3H-imidazo[4,5-b]pyridin-5-yl)phenyl)methanol]	0.01
Cc1cnc2c(c1)nc(-c1cccnc1N)n2-c1ccc(CNC(=O)c2ccc(C)c(C)c2)cc1 [Example 269, N-(4-(2-(2-aminopyridin-3-yl)-6-methyl-3H-imidazo[4,5-b]pyridin-3-yl)benzyl)-3,4-dimethylbenzamide]	0.16
Cc1cc(C)cc(C(=O)NCc2ccc(-n3c(-c4cccnc4N)nc4cc(C)cnc43)cc2)c1 [Example 277, N-(4-(2-(2-aminopyridin-3-yl)-6-methyl-3H-imidazo[4,5-b]pyridin-3-yl)benzyl)-3,5-dimethylbenzamide]	0.39
CC(=O)Nc1cccc(-c2cnc3c(c2)nc(-c2cccnc2N)n3-c2ccc(C3(N)CCC3)cc2)c1 [Example 359, N-(3-(3-(4-(1-aminocyclobutyl)phenyl)-2-(2-aminopyridin-3-yl)-3H-imidazo[4,5-b]pyridin-6-yl)phenyl)acetamide]	0.057
CCOC(=O)Cc1ccc(-n2c(-c3cccnc3N)nc3ccc(Cl)nc32)cc1 [Example 241, ethyl 2-(4-(2-(2-aminopyridin-3-yl)-5-chloro-3H-imidazo[4,5-b]pyridin-3-yl)phenyl)acetate]	0.33
Nc1ncccc1-c1nc2cc(-c3cc[nH]c3)cnc2n1-c1ccc(CNC(=O)c2ccccc2)cc1 [Example 237, N-(4-(2-(2-aminopyridin-3-yl)-6-(1H-pyrrol-3-yl)-3H-imidazo[4,5-b]pyridin-3-yl)benzyl)benzamide]	0.032
COC(=O)c1ccc(-c2ccc3nc(-c4cccnc4N)n(-c4ccc(CNC(=O)c5cccc(F)c5)cc4)c3n2)cc1 [Example 336, methyl 4-(2-(2-aminopyridin-3-yl)-3-(4-((3-fluorobenzamido)methyl)phenyl)-3H-imidazo[4,5-b]pyridin-5-yl)benzoate]	0.32
CNC(=O)C1(c2ccc(-n3c(-c4cccnc4N)nc4ccc(-c5ccccc5)nc43)cc2)CCC1 [Example 378, 1-(4-(2-(2-aminopyridin-3-yl)-5-phenyl-3H-imidazo[4,5-b]pyridin-3-yl)phenyl)-N-methylcyclobutanecarboxamide]	0.093
